# Laboratory results reported in publication PMC12040169 (PLOS Biology, 2025).
# Experiment: in vitro
# Details: human, hela cells, % viability
row,Compound,"viability at 28.5 h, 10 µM"
1,Cc1nn(-c2ccc(N3CCNCC3)nn2)c(=O)c2ccccc12 [CBK270067],88.1%
2,COCCn1c(=O)n(Cc2ccccc2F)c2cccnc21 [CBK283965],88.6%
3,O=C(Cc1c[nH]c2ccccc12)N1CCC2(CCN(C(=O)c3cccnc3)C2)C1 (stereo not shown) [CBK131453],80.6%
4,COc1ccc(Cl)cc1N/C=C(/C#N)c1nc(-c2cc3cc([N+](=O)[O-])ccc3oc2=O)cs1 [CBK263014],102%
5,CC(C)(C)OC(=O)NCCNC(=O)c1cccnc1NCc1ccc2c(c1)OCO2 [CBK160117],104%
6,Cc1noc(C)c1S(=O)(=O)Nc1nc(-c2cccnc2)cs1 [CBK067266],91.5%
7,CC(C)(C)OC(=O)N1CCCC(C(=O)NCCc2ccccn2)C1 (stereo not shown) [CBK304281],86.5%
8,O=C(CN1C(=O)c2ccccc2C1=O)NCc1ccc(C(=O)O)cc1 [CBK262795],90.2%
9,Nc1cc(=O)[nH]c(=O)n1CCc1c[nH]c2ccccc12 [CBK288190],98.1%
10,C=CCn1c2cc(C)sc2c2cnn(CC(=O)OCC)c(=O)c21 [CBK284165],82.9%
11,CN1CCN(c2nc(-c3ccoc3)cn3ccnc23)CC1 [CBK066645],97.1%
12,c1cncc(COc2nccnc2N2CCCC2)c1 [CBK115890],101%
13,CC(C)(C)C1CCc2onc(C(=O)NCCn3ccnc3)c2C1 (stereo not shown) [CBK281581],87.1%
14,COc1ccc(C)cc1C1(CNC(=O)C2CCCC2N)CCOCC1 (stereo not shown) [CBK304308C],108%
15,Oc1c(-c2ccc(Cl)cc2)c2nc3ccccc3nc2c2ccccc12 [CBK261628],87.7%
16,CC(Cc1ccccn1)NC(=O)C1CC2C=CC1C21CC1 (stereo not shown) [CBK282070],90.7%
17,CSCCC(Nc1ncnc2c1c(C)c(C)n2Cc1ccco1)C(=O)O (stereo not shown) [CBK307568],92.3%
18,O=C1NC2(CCCCC2)C(=O)N1Cc1cnn(-c2ccccc2)n1 [CBK305570],97.8%
19,COc1ccc(Cn2nc(NC(=O)c3cnc4ccccc4n3)c3ccccc32)cc1 [CBK048343],93%
20,O=C(Cn1nnc2ccccc21)Nc1ccc(Cl)cn1 [CBK296068],97.9%
21,O=C(c1cc[nH]n1)N1CCCC(c2cc3ccccc3cn2)C1 (stereo not shown) [CBK284921],85.2%
22,COc1ccc(OC(=O)c2cc(S(=O)(=O)N3CCCCCC3)ccc2Cl)cc1 [CBK264562],95.9%

row,Compound,"viability at 28.5 h, 10 µM"
1,COc1ccc(N2CCN(c3cc(-c4cc(C(F)(F)F)cc(C(F)(F)F)c4)ncn3)CC2)cc1OC [CBK091020],96.1%
2,COc1ccc(NC(=O)N[C@H]2CO[C@H]3[C@@H]2OC[C@@H]3n2cc(-c3ccccc3)nn2)cc1 [CBK289506],106%
3,O=C(CSc1nnc2ccc3ccccc3n12)Nc1nsc(-c2ccc(Cl)cc2)n1 [CBK266460],99.5%
4,Cc1nc2c(c(=O)[nH]1)CC[C@@H]1CN(C(=O)Cc3cccc(F)c3)C[C@H]21 [CBK284413],80.4%
5,COCCNC(=O)c1cnn2c(C)c(Cc3ccccc3C(F)(F)F)c(C)nc12 [CBK165210],95.7%
6,N=c1n(CC(=O)O)c2ccccc2n1Cc1ccc(Cl)cc1 [CBK262897B],89.5%
7,O=C(C1CCCC1)N1C2CCC1CC(O)(c1cccnc1F)C2 (stereo not shown) [CBK284421],88.4%
8,CC(C)[C@H](CO)n1c(=O)[nH]c2ncc(-c3cccc(/C=C/C(=O)O)c3)nc21 [CBK065051],92.5%
9,CN1CCN(CCC(=O)N/N=C/c2ccsc2)CC1 [CBK261505],94.8%
10,O=C(CSc1ccc2nnc(-c3ccccc3)n2n1)NCC1CCCO1 (stereo not shown) [CBK287515],96.6%
11,CCCN(CCC)CCc1cccc2c1CCN2C(=O)c1cc2ccccc2s1 [CBK017871C],93.2%
12,CC(C)(C)C1=CC2=NC3(CCCCC3)[C@@H]3C[C@@H](O)[C@@H](O)[C@@H]3N2O1 [CBK303235],111%
13,c1ccc2c(CCN3CCC(Oc4cncc(OCCN5CCOCC5)n4)C3)c[nH]c2c1 (stereo not shown) [CBK084500],100%
14,Cc1ncc([N+](=O)[O-])n1CC(=O)Nc1ccccc1F [CBK269335],86.4%
15,Cc1cc(=O)n(C)c(=O)n1CCCN1CCCCC1 [CBK027584],115%
16,COc1cccc(CN[C@@H]2CCC[C@H]2Cc2cc(C)no2)c1 [CBK283006],109%
17,NC(CC(=O)O)c1ccc(OCc2ccccc2)cc1 (stereo not shown) [CBK286999],80.9%
18,O=C(Nc1ccc2c(c1)nc1n2CCN(Cc2ccccc2)C1)NC1CCCCC1 [CBK267033],109%
19,O=C(Cn1ccc2ccnc(-c3cccs3)c21)N1CCOCC1 [CBK284729],94.2%
20,O=C(OCc1ccc(Br)cc1)c1ccccc1S(=O)(=O)c1ccccc1[N+](=O)[O-] [CBK265718],92.2%
21,S=C(NCC1CCN(C(=S)Nc2cccc3ccccc23)CC1)Nc1cccc2ccccc12 [CBK016070],107%
22,CCC1(CC)CCN(C(=O)CCn2ccc3ccncc32)C1 [CBK285176],84.9%

row,Compound,"viability at 28.5 h, 10 µM"
1,CCCCC(=O)NC(Nc1cc(C)ccn1)(C(F)(F)F)C(F)(F)F [CBK009331],79.6%
2,O=S(=O)(Nc1nc(-c2ccccc2Cl)cs1)c1sc(Cl)cc1Br [CBK200028],103%
3,CC1(C)CCCC2=C1CC(C(=O)O)C(C(=O)O)C2 (stereo not shown) [CBK272329],97.4%
4,COc1cc(/C=N/NC(=O)CSc2n[nH]c(=O)[nH]c2=O)ccc1O [CBK263513],88.7%
5,COC(C)CN(C)C(=O)c1oc2cc(C)ccc2c1C (stereo not shown) [CBK282043],88.1%
6,Oc1cc(-c2ccccc2)nc(NNc2ccccc2)n1 [CBK261716],96.6%
7,O=S(=O)(Nc1nnc(C(F)(F)F)s1)c1ccc(Br)cc1C(F)(F)F [CBK062013],96.7%
8,CCOC(=O)c1ccccc1NC(=O)CC1Nc2ccccc2NC1=O (stereo not shown) [CBK263990],91.3%
9,C=C[C@H]1C[N@@]2CC[C@H]1C[C@@H]2CNS(=O)(=O)c1cccc2cccnc12 [CBK288751],98.2%
10,CC(=O)Nc1cccc2c1NSN2 [CBK027082],92.1%
11,Cc1ccc(C)c2c1CCCC2N1CCC(NS(C)(=O)=O)CC1 (stereo not shown) [CBK304038],103%
12,COc1ccc(Cn2nc(NS(=O)(=O)c3ccc(-c4ccon4)s3)c3ccccc32)cc1 [CBK048031],92.9%
13,O=C(O)c1cccc(NS(=O)(=O)c2cccc([N+](=O)[O-])c2)c1 [CBK155711],99.2%
14,Cc1cc(Cl)c(S(=O)(=O)Nc2cccnc2)cc1OCC(N)=O [CBK266523],104%
15,O=C(c1cc(CC2(NCc3ccc(F)cc3)COC2)no1)N1CCCCC1 [CBK289657],92.4%
16,COc1nccnc1OC1CCN(CC(=O)Nc2c(C)cccc2C)CC1 [CBK084249],96.1%
17,CCCNCCc1ccc(NC(=O)Nc2cc(F)cc3c2OCOC3)cc1 [CBK173887T],97.8%
18,O=C(c1ccc2c(c1)OCCO2)N1CCN(c2ncccn2)CC1 [CBK144519],89.5%
19,CN1CCCC1c1cccnc1 (stereo not shown) [CBK015659],94%
20,O=C(O)COCc1nn(-c2ccc(Br)cc2)c2c1CCCC2 [CBK016404],98.6%
21,CC(Cn1cc(Cl)cn1)C(=O)NC(C)C1CC2CCC1C2 (stereo not shown) [CBK281650],110%
22,O=C(Nc1cccc(Cl)c1)N(Cc1ccncc1)CC1CCCO1 (stereo not shown) [CBK305362],93%

row,Compound,"viability at 28.5 h, 10 µM"
1,FC(F)(F)c1cccc(CSc2cc(N3CCCC3)ncn2)c1 [CBK107184],91.1%
2,Cc1nc(NC(=O)c2ccoc2)sc1C [CBK296729],103%
3,COc1cncc(-c2cnc(N)c(NC3CCOCC3)n2)c1 [CBK063846],85.7%
4,O=C1CC2(C(=O)N1CCC1CCCCC1)C(=O)N(Cc1ccccc1)c1ccc(F)cc12 (stereo not shown) [CBK075175],91%
5,O=C(Nc1nc2ccccc2s1)c1cc([N+](=O)[O-])ccc1Cl [CBK072428],85.9%
6,Cc1nn(C)cc1C(=O)O[C@H]1C[C@@H](c2ccc(F)cc2)N(C)C1=O [CBK283615],103%
7,CC1(C)CC(=O)C=C(C(=O)Nc2cncc(OC3CCNCC3)n2)O1 [CBK038922T],103%
8,O=C(c1cc(-c2cccc(Br)c2)nc2ccccc12)N1CCN(C/C=C/c2ccccc2)CC1 [CBK262633],100%
9,O=C(CN1CCOCC1)NCCNc1c(Cl)c(Cl)c(Cl)c(Cl)c1Cl [CBK266851],84.7%
10,O=C(NCCn1c(=O)oc2ccccc21)C(c1cccs1)c1cccs1 [CBK286198],99.8%
11,CO[C@]1(c2cccc(C)c2)CC[C@@H](N2CCCCC2)CC1 [CBK015909G],83%
12,Cc1ccc2oc([C@H]3CN(C(=O)C(C)(C)NC(=O)OC(C)(C)C)C[C@@H]3C(=O)O)cc2c1 [CBK001600],86.1%
13,COc1ccc(C)cc1S(=O)(=O)N(CC(=O)O)Cc1ccccc1 [CBK267847],108%
14,COCCN1CCCC(NS(=O)(=O)c2cccc(C(C)=O)c2)C1 (stereo not shown) [CBK305290],94.7%
15,S=C(NCCC(c1ccccc1)c1ccccc1)Nc1ccc(Cl)c(Cl)c1 [CBK263972],85.1%
16,CC(Oc1ccc(F)cc1)C(=O)N(C)CC1(C)COC1 (stereo not shown) [CBK281702],89.7%
17,COc1ccc(NC(=O)CC2SC(=N)NC2=O)c([N+](=O)[O-])c1 (stereo not shown) [CBK265334],95.9%
18,Cc1cccc(OCC(=O)NCCCc2ccccc2)c1C [CBK265507],99.9%
19,COC(=O)c1ccccc1N1C(=O)c2cccc([N+](=O)[O-])c2C1=O [CBK115382],95.7%
20,CC(C)c1ccc(NS(=O)(=O)c2cc3c(N4CCNCC4)nccc3s2)cc1 [CBK038104C],91.4%
21,COc1ccc(Cc2c(C)nc3c(C(=O)NCC4COc5ccccc5O4)cnn3c2C)cc1 (stereo not shown) [CBK162179],102%
22,O=C1CCC(=O)N1CC(O)Cn1c2ccc(Cl)cc2c2cc(Cl)ccc21 (stereo not shown) [CBK262222],90.5%
